# In article PMC5849192, “First-in-human phase 1 study of the BTK inhibitor GDC-0853 in relapsed or refractory B-cell NHL and CLL” (Oncotarget, 2018):
# Like-named read-outs stand apart in the source and are kept apart here.
# Assays:
# [1] = Plasma pharmacokinetics of GDC-0853 on day 1 and day 15 (LC-MS/MS); type: in vivo, human; conditions: for Day 15 Accumulation Ratio Mean (%CV): AUC0-24 day 15 relative to day 1; for Day 1 AUC0-24 Mean (%CV) / half-life / Cmax / Tmax / AUC(0-t) / AUC(0-inf): plasma; for half-life / Cmax / Tmax / AUC(0-t) / AUC(0-inf): human; for Cmax / Tmax: po; for AUC(0-t): read-out: Day 15 AUC0-24 Mean (%CV); for AUC(0-inf): read-out: Day 1 AUC0-inf Mean (%CV)
# Description: (§1) PK parameters were calculated on study days 1 and 15 based on the plasma concentration of GDC-0853 according to the model independent approach. PK (plasma) samples were collected at predose, 0.5, 1, 2, 3, 4, 6, 8, and 24 h post-dose, and analyzed at a sponsor-designated laboratory using a validated liquid chromatography–tandem mass spectrometry (LC-MS/MS) method. CCL3 was determined in plasma samples using the Erenna Immunoassay System (Singulex Inc, Alameda, CA) with a fluorescently labeled CCL3 detection antibody (P&D System; AF270-NA). Mutational assessment of BTK mutation status was performed according to methods previously reported. Positivity was considered when 3% or more of the cells derived from blood CD19 selected B-cells were positive for C481S mutation in a CLIA approved laboratory.
# CCL3 = test: Plasma CCL3 concentrations (pharmacodynamic marker, Erenna immunoassay); type: in vivo, human; conditions: for Reduction in CCL3, single patient: 24 h after initial dose
# Description: as §1
# The data cut-off date for all analyses was Jun 1, 2015. All patients who received at least 1 dose of GDC-0853 were included in both safety and clinical activity analyses. Preliminary assessment of anti-tumor activity of GDC-0853 was a secondary objective of the study. […] The overall response rate (ORR) was determined as responder patients (complete response [CR] and partial response [PR], or partial response with lymphocytosis [PR-L] for CLL patients) relative to all patients in the study. Duration of objective response was calculated as the time from the first occurrence of a documented objective response until the time of relapse, death from any cause, or the date of the last tumor assessment prior to the data cut-off (censored). Anti-tumor activity of GDC-0853 was determined by the change in the sum of the products of the diameters (SPD) of the target lesions relative to baseline, estimated by computed tomography (CT) scans. Response for CLL was determined using the IWCLL guidelines. and also included PR-L as described by Cheson et al. For NHL, response was based on physical examinations and CT scans using modified response criteria for NHL [37]. PK concentrations are expressed as mean ± standard deviation. Hematology (neutrophils, platelets, lymphocytes, and hemoglobin) and plasma analytes are presented either as absolute concentrations (median ± interquartile range or mean ± 95% CI) or as a percent change from baseline (visit cycle 1, day 1). Response duration is reported as median ± IQR.
structure (smiles),measurement,setting,value
C[C@H]1CN(C2COC2)CCN1c1ccc(Nc2cc(-c3ccnc(N4CCn5c(cc6c5CC(C)(C)C6)C4=O)c3CO)cn(C)c2=O)nc1 [GDC-0853],Day 15 Accumulation Ratio Mean (%CV),[1]; 100 mg (n = 6) QD,1.78 (58.4)
same,Day 1 AUC0-24 Mean (%CV),"[1]; 100 mg (n = 6), oral",1.01 (77.4) hr^*uM
same,Day 15 Accumulation Ratio Mean (%CV),[1]; 200 mg (n = 9) QD,1.44 (77.9)
same,Day 1 AUC0-24 Mean (%CV),"[1]; 200 mg (n = 9), oral",3.83 (76.5) hr^*uM
same,Day 15 Accumulation Ratio Mean (%CV),[1]; 400 mg (n = 9) QD,1.91 (102)
same,Day 1 AUC0-24 Mean (%CV),"[1]; 400 mg (n = 9), oral",10.5 (65.8) hr^*uM
same,"Exposure (AUC0-24) increase on day 15 relative to day 1, mean accumulation ratio","[1]; continual QD dosing, across cohorts",1.44 to 1.91 fold
same,half-life,"[1]; oral, across 100, 200, 400 mg cohorts, read-out: Mean T1/2 from day 1",397 to 822 min
same,Cmax,"[1]; 100 mg, 100 mg (n = 6) QD, oral, read-out: Day 15 Cmax Mean (%CV)",354 nM
same,Tmax,"[1]; 100 mg, 100 mg (n = 6) QD, oral, read-out: Day 15 Tmax Median (range)",2.97 h
same,Cmax,"[1]; 100 mg, 100 mg (n = 6), oral, read-out: Day 1 Cmax Mean (%CV)",180 nM
same,Tmax,"[1]; 100 mg, 100 mg (n = 6), oral, read-out: Day 1 Tmax Median (range)",2.07 h
same,Cmax,"[1]; 200 mg, 200 mg (n = 9) QD, oral, read-out: Day 15 Cmax Mean (%CV)",925 nM
same,Tmax,"[1]; 200 mg, 200 mg (n = 9) QD, oral, read-out: Day 15 Tmax Median (range)",2.1 h
same,Cmax,"[1]; 200 mg, 200 mg (n = 9), oral, read-out: Day 1 Cmax Mean (%CV)",861 nM
same,Tmax,"[1]; 200 mg, 200 mg (n = 9), oral, read-out: Day 1 Tmax Median (range)",1.85 h
same,Cmax,"[1]; 400 mg, 400 mg (n = 9) QD, oral, read-out: Day 15 Cmax Mean (%CV)",2100 nM
same,Tmax,"[1]; 400 mg, 400 mg (n = 9) QD, oral, read-out: Day 15 Tmax Median (range)",1.05 h
same,Cmax,"[1]; 400 mg, 400 mg (n = 9), oral, read-out: Day 1 Cmax Mean (%CV)",2180 nM
same,Tmax,"[1]; 400 mg, 400 mg (n = 9), oral, read-out: Day 1 Tmax Median (range)",1.17 h
same,Tmax,"[1]; days 1 and 15, across 100–400 mg cohorts, read-out: Time of peak concentrations (median Tmax)",1 to 3 h
same,AUC(0-t),"[1]; 100 mg (n = 6) QD, oral",1.81 µM·h
same,AUC(0-inf),"[1]; 100 mg (n = 6), oral",1.3 µM·h
same,half-life,"[1]; 100 mg (n = 6), oral, read-out: Day 1 T1/2 Mean (%CV) (converted)",822 min
same,AUC(0-t),"[1]; 200 mg (n = 9) QD, oral",4.27 µM·h
same,AUC(0-inf),"[1]; 200 mg (n = 9), oral",5.15 µM·h
same,half-life,"[1]; 200 mg (n = 9), oral, read-out: Day 1 T1/2 Mean (%CV) (converted)",397 min
same,AUC(0-t),"[1]; 400 mg (n = 9) QD, oral",11.7 µM·h
same,AUC(0-inf),"[1]; 400 mg (n = 9), oral",11.4 µM·h
same,half-life,"[1]; 400 mg (n = 9), oral, read-out: Day 1 T1/2 Mean (%CV) (converted)",437 min
same,"Reduction in CCL3, single patient",CCL3; 1 patient with WM,−65%
same,Average plasma CCL3 concentration,"CCL3; CLL patients, 24 h after initial oral dose (baseline 113 pg/ml)",28 pg/mL
same,Reduction of plasma CCL3 from baseline,"CCL3; CLL patients, 24 h after initial oral dose, irrespective of starting dose",~ 67%
same,Reduction in CCL3,"CCL3; NHL patients, 24 h after initial oral dose",~ -35%
same,"Reduction in CCL3, single patient",CCL3; a patient with DLBCL,0%
same,CCL3 levels,CCL3; patients harboring either wild-type or C481 mutations,reduced
